This passage reports GI50 results from publication PMC6044933 (ACS Omega, 2017).

Where a name gives a salt, the structure may show the parent alone. Read-outs that look alike come from different tables or passages of the source. Where only a bound is given, the exact number is not on record here.

Holding throughout (assay): cells
One assay deals with H460. Particulars: Homo sapiens, NCI-H460, 72 h.
A further assay relates to BE2-C. Particulars: Homo sapiens, BE(2)-C, 72 h.
In a further assay the test system is U87. Particulars: Homo sapiens, U-87 MG, 72 h.
For the next assay, the system named is A2780. The conditions noted are these: Homo sapiens, A2780, 72 h.
The subject of the next assay is SMA. Particulars: SMA, 72 h.
The test system of a further assay is MCF10A. The conditions noted are these: Homo sapiens, MCF-10A, 72 h.
The test system of a further assay is HT29. Particulars: Homo sapiens, HT-29, 72 h.
Another assay has as its system SJ-G2. Particulars: SJ-G2, 72 h.
The subject of a further assay is MCF-7. Particulars: Homo sapiens, MCF7, 72 h.
A further assay has as its system Du145. The conditions noted are these: Homo sapiens, DU-145, 72 h.
In a further assay the test system is A431. Particulars: Homo sapiens, A-431, 72 h.
A further assay concerns MIA. The conditions noted are these: 72 h.

On to `Nc1ccc(OC/C=C\COc2ccc(N)cc2)cc1` [8e, (Z)-4,4′-(But-2-ene-1,4-diylbis(oxy))dianiline hydrochloride], for which the GI50 with H460 (read-out: 8e), in the assay on BE2-C (read-out: 8e), with U87 (read-out: 8e), with A2780 (read-out: 8e), with SMA (read-out: 8e) and with MCF10A (read-out: 8e) was above 50 µM throughout. The GI50 in the assay on HT29 (read-out: 8e), in the assay with SJ-G2 (read-out: 8e), in the assay with MCF-7 (read-out: 8e), in the assay with Du145 (read-out: 8e), in the assay on A431 (read-out: 8e) and in the assay on MIA (read-out: 8e) was above 50 µM in each case.
Turning to `CCNC(=O)Nc1ccc(OCCCOc2ccc(NC(=O)NCC)cc2)cc1` [10a, N,N′-[1,3-Propanediylbis(oxy-4,1-phenylene)]bis(N-ethyl)urea], the GI50 in the assay on H460 (read-out: 10a), in the assay on BE2-C (read-out: 10a), in the assay with U87 (read-out: 10a), in the assay with A2780 (read-out: 10a), in the assay with SMA (read-out: 10a) and in the assay on MCF10A (read-out: 10a) was above 50 µM each time. The GI50 in the assay with HT29 (read-out: 10a), in the assay with SJ-G2 (read-out: 10a), with MCF-7 (read-out: 10a), with Du145 (read-out: 10a), with A431 (read-out: 10a) and in the assay with MIA (read-out: 10a) was above 50 µM each time.
For `CCNC(=O)Nc1ccc(OCCCCCOc2ccc(NC(=O)NCC)cc2)cc1` [10b, N,N′-[1,5-Pentanediylbis(oxy-4,1-phenylene)]bis(N-ethyl)urea], the GI50 in the assay with H460 (read-out: 10b), with BE2-C (read-out: 10b), in the assay with U87 (read-out: 10b), in the assay on A2780 (read-out: 10b), in the assay with SMA (read-out: 10b) and with MCF10A (read-out: 10b) was above 50 µM in each case. Moreover, the GI50 in the assay on HT29 (read-out: 10b), in the assay on SJ-G2 (read-out: 10b), with MCF-7 (read-out: 10b), in the assay with Du145 (read-out: 10b), in the assay with A431 (read-out: 10b) and with MIA (read-out: 10b) was above 50 µM in each case.
With `CCNC(=O)Nc1ccc(OC/C=C\COc2ccc(NC(=O)NCC)cc2)cc1` [10e, (Z)-1,1′-((But-2-ene-1,4-diylbis(oxy))bis(4,1-phenylene))bis(3-ethylurea)], the GI50 in the assay on H460 (read-out: 10e), with BE2-C (read-out: 10e), in the assay with U87 (read-out: 10e), with A2780 (read-out: 10e), with SMA (read-out: 10e) and in the assay on MCF10A (read-out: 10e) was above 50 µM each time. For the same compound, the GI50 in the assay on HT29 (read-out: 10e), in the assay on SJ-G2 (read-out: 10e), in the assay with MCF-7 (read-out: 10e), in the assay on Du145 (read-out: 10e), in the assay on A431 (read-out: 10e) and with MIA (read-out: 10e) was above 50 µM each time.
Turning to `CCNC(=O)Nc1ccc(OC/C=C\COc2ccc(CCN)cc2)cc1` [13i, (Z)-2-(4-((4-(4-(3-Ethylureido)phenoxy)but-2-en-1-yl)oxy)phenyl)ethan-1-aminium], the GI50 with H460 (read-out: 13i) stood at 21 ± 2.1 µM; in the assay on BE2-C (read-out: 13i) it was 18 ± 3.2 µM; in the assay with U87 (read-out: 13i), 29 ± 1.4 µM; in the assay with A2780 (read-out: 13i) it was 18 ± 0.91 µM; with SMA (read-out: 13i), 28 ± 4.4 µM; with MCF10A (read-out: 13i), 19 ± 0.5 µM. In addition, the GI50 with HT29 (read-out: 13i) is 15 µM; in the assay on SJ-G2 (read-out: 13i), 24 ± 2.6 µM; with MCF-7 (read-out: 13i), 17 ± 0.82 µM; with Du145 (read-out: 13i), 13 ± 0.41 µM; in the assay with A431 (read-out: 13i), 17 ± 0.75 µM; in the assay with MIA (read-out: 13i), 28 ± 0.82 µM.
For `CCNC(=O)Nc1ccc(OCCCCOc2ccc(NC(=O)NCC)cc2)cc1` [compound 1], the GI50 in the assay on H460 (read-out: 1), in the assay on BE2-C (read-out: 1), with U87 (read-out: 1), with A2780 (read-out: 1), with SMA (read-out: 1) and with MCF10A (read-out: 1) was above 50 µM each time. Further, the GI50 in the assay with HT29 (read-out: 1), in the assay on SJ-G2 (read-out: 1), in the assay on MCF-7 (read-out: 1), in the assay with Du145 (read-out: 1), with A431 (read-out: 1) and in the assay with MIA (read-out: 1) was above 50 µM in each case.
On to `O=C(O)c1ccc(OC/C=C\COc2ccc(C(=O)O)cc2)cc1` [compound 18, (Z)-4,4′-(But-2-ene-1,4-diylbis(oxy))dibenzoic Acid], for which the GI50 in the assay on H460 (read-out: 18), with BE2-C (read-out: 18), with U87 (read-out: 18), in the assay with A2780 (read-out: 18), in the assay with SMA (read-out: 18) and with MCF10A (read-out: 18) was above 50 µM throughout. The GI50 in the assay on HT29 (read-out: 18), in the assay with SJ-G2 (read-out: 18), in the assay with MCF-7 (read-out: 18), in the assay with Du145 (read-out: 18), in the assay with A431 (read-out: 18) and with MIA (read-out: 18) was above 50 µM throughout.
Turning to `N=C(N)NN=Cc1ccc(OC/C=C\COc2ccc(C=NNC(=N)N)cc2)cc1` [compound 22], the GI50 came to 2.2 ± 0.065 µM in the assay on H460 (read-out: 22); 2.3 ± 0.13 µM in the assay with BE2-C (read-out: 22); 2 ± 0.1 µM with U87 (read-out: 22); 2.4 ± 0.14 µM in the assay on A2780 (read-out: 22); 2.9 µM with SMA (read-out: 22); 2.8 ± 0.15 µM in the assay with MCF10A (read-out: 22). For the same compound, the GI50 with HT29 (read-out: 22) came out at 2.1 ± 0.05 µM; with SJ-G2 (read-out: 22), 1.8 ± 0.048 µM; in the assay with MCF-7 (read-out: 22) it was 2.3 ± 0.1 µM; in the assay on Du145 (read-out: 22) it was 1.7 ± 0.12 µM; in the assay with A431 (read-out: 22) it was 2.2 ± 0.11 µM; in the assay with MIA (read-out: 22), 2.4 ± 0.14 µM.
